Tests used:
LLC cell-bearing mice = assay: In vivo antitumor efficacy in LLC cell-bearing mice; design: species or system C57BL/6 mice
Method: The in vivo dose-dependent antitumor effects of oral PMX/DL(1:1)-CD compared to PMX-IV were evaluated by inoculating LLC cells at a density of 1 × 10^6 cells/100 μL PBS (pH 7.4) into the right dorsal flanks of 6-week-old female C57BL/6 mice. The oral doses for PMX/DL(1:1)-CD with antitumor activities without toxic effects were determined based on our previous study (Maharjan et al., [2019]). […] The body weights and tumor volumes of all mice were measured every 3 days. Tumor volume was then calculated as a^2 × b × 0.52, where a and b were the width and length of the tumor, respectively. The mice were sacrificed and the tumor masses were measured 21 days after drug administration.

[1] = Octanol/water apparent partition coefficient; assay type: physicochemical; conditions: n = 4, read-out: Log P (logarithm of the octanol/water partition coefficient)
Description: ^aLogarithm of the octanol/water partition coefficient. Each value represents the mean ± standard deviation (n = 4).

Nc1nc2[nH]cc(CCc3ccc(C(=O)N[C@@H](CCC(=O)O)C(=O)O)cc3)c2c(=O)[nH]1 [PMX, Pemetrexed]
Antitumor efficacy compared to the control group (LLC cell-bearing mice; IV 150 mg/kg PMX once every 3 weeks): 60.9%
Body weights compared to the control group (LLC cell-bearing mice; repeated administration for 3 weeks, all dose groups): did not change significantly
logP [1]: -1.14 ± 0.01

Reference: publication PMC8567874, “Metronomic delivery of orally available pemetrexed-incorporated colloidal dispersions for boosting tumor-specific immunity” (Drug Delivery, 2021)
